The values below come from a polymer gas permeability compilation.

Molecules are shown by their SMILES.

Consider `*C(=C(*)c1ccc2c(c1)C(C)(C)CC2(C)C)c1ccc(C)cc1` (repeat unit), for which the CH4 permeability amounted to 10100 Barrer, the CO2 permeability was found to be 16900 Barrer, the H2 permeability is 10800 Barrer and the N2 permeability worked out at 4100 Barrer. This molecule showed an O2 permeability of 5700 Barrer.
Taken in the same sequence, the figures for `*C(=C(*)c1ccc2c(c1)C(C)(C)CC2(C)C)c1ccc(Cl)cc1` (repeat unit) were 22700 Barrer, 35200 Barrer, 20600 Barrer, 9200 Barrer and 11700 Barrer.
Take `*C(=C(*)c1ccc2c(c1)C(C)(C)CC2(C)C)c1ccc(F)c(F)c1` (repeat unit): the CH4 permeability was 35000 Barrer, the CO2 permeability was 44200 Barrer, the H2 permeability was determined as 36800 Barrer and the N2 permeability was found to be 16600 Barrer. The molecule also showed an O2 permeability of 18700 Barrer.
For the molecule `*c1c(C)cc(-c2cc(C)c(-n3c(=O)c4cc5oc6cc7c(cc6oc5cc4c3=O)C3(C)CCC7(C)c4cc5oc6cc7c(=O)n(*)c(=O)c7cc6oc5cc43)c3ccccc23)c2ccccc12` (repeat unit), the CH4 permeability worked out at 180 Barrer, the CO2 permeability was 3000 Barrer, the H2 permeability stood at 2490 Barrer and the N2 permeability was found to be 141 Barrer. The O2 permeability was 583 Barrer.
Taken in the same sequence, the figures for `*c1c(C)cc(-c2cc(C)c(N3C(=O)c4cc5c(cc4C3=O)C3(CC(C)(C)c4cc6c(cc43)C(=O)N(*)C6=O)CC5(C)C)c3ccccc23)c2ccccc12` (repeat unit) were 359 Barrer, 4030 Barrer, 1620 Barrer, 212 Barrer and 640 Barrer.
Consider `*c1c(C)cc(-c2cc(C)c(N3C(=O)c4cc5c(cc4C3=O)S(=O)(=O)c3cc4c(cc3S5(=O)=O)C(=O)N(*)C4=O)c(C)c2)cc1C` (repeat unit), for which the CH4 permeability is 1.21 Barrer, the CO2 permeability was determined as 39 Barrer, the H2 permeability stood at 58 Barrer and the N2 permeability amounted to 1.33 Barrer. Moreover, the O2 permeability is 6.6 Barrer.
For the molecule `*c1c(C)cc(-c2cc(C)c(N3C(=O)c4ccc(Oc5cc(C(C)(C)C)c(Oc6ccc7c(c6)C(=O)N(*)C7=O)cc5C(C)(C)C)cc4C3=O)c(C)c2)cc1C` (repeat unit), the CH4 permeability was found to be 5.6 Barrer, the CO2 permeability is 95 Barrer, the H2 permeability was found to be 150 Barrer and the N2 permeability amounted to 4.9 Barrer. Besides, the O2 permeability is 22 Barrer.
Molecule `*c1c(C)cc(-c2cc(C)c(N3C(=O)c4ccc(Oc5cc(C)c(Oc6ccc7c(c6)C(=O)N(*)C7=O)c(C)c5C)cc4C3=O)c(C)c2)cc1C` (repeat unit) registered a CH4 permeability of 1.2 Barrer, a CO2 permeability of 39 Barrer, an H2 permeability of 55 Barrer and an N2 permeability of 1.2 Barrer. This molecule displayed an O2 permeability of 6.5 Barrer.
`*c1c(C)cc(C)c(N2C(=O)c3ccc(-c4ccc5c(c4)C(=O)N(*)C5=O)cc3C2=O)c1C` (repeat unit) came in with a CH4 permeability of 8 Barrer, a CO2 permeability of 182 Barrer, an H2 permeability of 210 Barrer and an N2 permeability of 7.5 Barrer. Further, the O2 permeability amounted to 32 Barrer.
In turn, `*c1c(C)cc(C)c(N2C(=O)c3ccc(C(c4ccc5c(c4)C(=O)N(*)C5=O)(C(F)(F)F)C(F)(F)F)cc3C2=O)c1C` (repeat unit) registered a CH4 permeability of 20.4 Barrer, a CO2 permeability of 422 Barrer, an H2 permeability of 435 Barrer and an N2 permeability of 24.3 Barrer. Further, the O2 permeability stood at 87.7 Barrer.
Molecule `*c1c(C)cc(Cc2cc(C)c(-n3c(=O)c4cc5c(=O)n(*)c(=O)c5cc4c3=O)c(C)c2)cc1C` (repeat unit) had a CH4 permeability of 8.21 Barrer, a CO2 permeability of 97.6 Barrer, an N2 permeability of 7.08 Barrer and an O2 permeability of 27.4 Barrer.
Molecule `*c1c(C)cc2c(c1C)C1c3ccccc3C2c2cc(C)c(-n3c(=O)c4cc5c(=O)n(*)c(=O)c5cc4c3=O)c(C)c21` (repeat unit) returned a CH4 permeability of 238 Barrer, a CO2 permeability of 3360 Barrer, an H2 permeability of 2380 Barrer and an N2 permeability of 180 Barrer. Further, the O2 permeability was 680 Barrer.
Molecule `*c1c(C)cc2c(c1C)C1c3ccccc3C2c2cc(C)c(-n3c(=O)c4cc5oc6cc7c(cc6oc5cc4c3=O)C3(C(C)C)c4ccccc4C7(C(C)C)c4cc5oc6cc7c(=O)n(*)c(=O)c7cc6oc5cc43)c(C)c21` (repeat unit) gave a CH4 permeability of 395 Barrer, a CO2 permeability of 5010 Barrer, an H2 permeability of 4140 Barrer and an N2 permeability of 306 Barrer. Further, the O2 permeability was 1150 Barrer.
`*c1c(C)cc2c(c1C)C1c3ccccc3C2c2cc(C)c(N3C(=O)c4ccc(C(c5ccc6c(c5)C(=O)N(*)C6=O)(C(F)(F)F)C(F)(F)F)cc4C3=O)c(C)c21` (repeat unit): the CH4 permeability came to 121 Barrer, the CO2 permeability is 1730 Barrer, the H2 permeability is 1400 Barrer and the N2 permeability was found to be 113 Barrer. The molecule also showed an O2 permeability of 374 Barrer.
Molecule `*c1cc(-c2nc3cc(-c4ccc5[nH]c(*)nc5c4)ccc3[nH]2)cc(C(C)(C)C)c1` (repeat unit) registered a CH4 permeability of 0.05 Barrer, a CO2 permeability of 1.91 Barrer, an H2 permeability of 10.7 Barrer and an N2 permeability of 0.06 Barrer. The molecule further had an O2 permeability of 0.42 Barrer.
`*c1cc(C(=O)OCCC(F)(F)C(F)(F)C(F)(F)C(F)(F)C(F)(F)C(F)(F)F)cc(N2C(=O)c3ccc(C(=O)c4ccc5c(c4)C(=O)N(*)C5=O)cc3C2=O)c1` (repeat unit) came in with a CH4 permeability of 4.19 Barrer, a CO2 permeability of 75 Barrer, an N2 permeability of 4.49 Barrer and an O2 permeability of 19.7 Barrer.
With `*c1cc(C(=O)OCCC(F)(F)C(F)(F)C(F)(F)C(F)(F)C(F)(F)C(F)(F)F)cc(N2C(=O)c3ccc(C(c4ccc5c(c4)C(=O)N(*)C5=O)(C(F)(F)F)C(F)(F)F)cc3C2=O)c1` (repeat unit), the CH4 permeability turned out to be 0.44 Barrer, the CO2 permeability came out at 17.8 Barrer, the N2 permeability was 0.74 Barrer and the O2 permeability was 4.74 Barrer.
`*c1cc(C(=O)OCCC(F)(F)C(F)(F)C(F)(F)C(F)(F)C(F)(F)C(F)(F)F)cc(N2C(=O)c3ccc(Oc4ccc5c(c4)C(=O)N(*)C5=O)cc3C2=O)c1` (repeat unit): the CH4 permeability was found to be 0.36 Barrer, the CO2 permeability was 11 Barrer, the N2 permeability was determined as 0.56 Barrer and the O2 permeability worked out at 2.61 Barrer.
In turn, `*c1cc(C(c2ccc(C)c(-n3c(=O)c4cc5oc6cc7c(cc6oc5cc4c3=O)C3(CC(C)(C)c4cc5oc6cc8c(=O)n(*)c(=O)c8cc6oc5cc43)CC7(C)C)c2)(C(F)(F)F)C(F)(F)F)ccc1C` (repeat unit) displayed a CH4 permeability of 9 Barrer, a CO2 permeability of 210 Barrer, an H2 permeability of 220 Barrer and an N2 permeability of 9 Barrer. The O2 permeability is 39 Barrer.
`*c1cc(C)c(C)c(N2C(=O)c3ccc(Oc4cc(C)c(Oc5ccc6c(c5)C(=O)N(*)C6=O)c(C)c4C)cc3C2=O)c1C` (repeat unit) returned a CH4 permeability of 4 Barrer, a CO2 permeability of 110 Barrer, an H2 permeability of 130 Barrer and an N2 permeability of 3.8 Barrer. This molecule also returned an O2 permeability of 18 Barrer.
